Reference: patent publication US20100075993A1, “SMALL MOLECULE INHIBITORS AGAINST WEST NILE VIRUS REPLICATION” (DREXEL UNIVERSITY, priority 2005, published 2010)

Experiments:
BHK 26.5 replicon cells = test: MTT toxicity assay on BHK 26.5 replicon cells; format: cell-based; conditions: MTT assay
Excerpt: The HTS strategy follows the flowchart outlined in FIG. 2. 35,000 compounds were screened from a chemical library described below, using a cutoff of 50% reduction in luminescence readout as the criteria for further study. Upon completion of the screen, approximately 1100 compounds were selected, making the hit rate of 3%. This is considerably higher than expected, implying many false positive and/or cytotoxic compounds. Nevertheless, the compounds were picked out from the “daughter” plates and re-checked at a single 10 μM concentration. In addition, a duplicate 96 well plates were also plated and the toxicity of the compounds was determined in an MTT assay. Upon completion of these assays, most compounds were disqualified as either false positives or being toxicity to cells. As a result, only a small number of compounds were further analyzed directly from the “mother” plate stock. After IC50 determination and secondary assay to rule out luciferase inhibitors, 23 “hits” were identified.
(§1) Replicon-harboring cells were plated 96-well plates at 10,000 cells per well in MEM plus 3% FBS. 24 hours after plating, compounds were added to the wells by a Robotic liquid handler (Biomek NX) to a final concentration of 10 μM and 1% DMSO. For each 96 well plate, A1 to A8 were left open, H1 to H4 contained 1% DMSO, H5-H8 contained Mycophenolic acid (Sigma-Aldrich, St. Louis, Mo.), which was included as positive controls. After 24 hours of treatment, the media were removed and the luciferase activity expressed in the replicon cells was quantified. When cyto-toxicity was measured, duplicate 96 well plates were plated with BHK 26.5 replicon cells. One plate was used for luciferase assay and one plate was used for measuring toxicity using MTT assay.
(§2) Compound toxicity was determined by MTT assay. For the MTT assay, the cell medium was removed and the monolayers were incubated with 100 μl/well of 0.5 mg/ml MTT for 6 h at 37° C. The MTT solution was then aspirated and 100 μl/well of the 10% SDS (in 0.01N HCl) was added, followed by spectrophotometric quantitation (570 nm) of the insoluble MIT reaction product.

WNV NS3 protein = test: Western blot of WNV protein in compound treated replicon cells; format: cell-based, West Nile virus; conditions: 48-hour treatment, up to 10 uM; MPA 2.5 ug/ml
Procedure: Mycophenolic acid (MPA) was used as positive control in the experiment. 4×10^4 cells were seeded in 24 well plates 24 hours before the various concentrations of compounds were added. After 48 hours of drug treatment, SDS-Sample buffer were added to the wells to lyse the cells. The protein samples were separated on SDS-PAGE and transferred to PVDF membrane. Viral protein was detected by probing with a monoclonal antibody against WNV. The same membrane was stripped and probed for beta-actin with the signals shown at the bottom of the blot.
Although it is reassuring that multiple tests have yielded similar positive results, the ability of the compounds to inhibit WNV replication was further assessed in secondary assays. In the western blot analysis shown in FIG. 5, total cell proteins were prepared from WNV replicon cells treated with the hit compounds and the viral protein NS3 was detected with a monoclonal […] against West Nile virus (15). The same blots were stripped and probed for beta-actin to show equal loading. […] When compared with the IC50 determined for these compounds in the luciferase assay, there was a good correlation between the luciferase reduction and the viral protein reduction.
Total cell lysates from replicon cells were harvested from replicon cells in 1×SDS sample buffer. The lysates were heated at 70° C. for 10 min in the presence of DTT before electrophoresis on a 10% Tris-glycine SDS polyacrylamide gel (Invitrogen) in 1× Tris-glycine buffer. The protein was transferred to PVDF (Invitrogen) membrane. Following the transfer, the membrane was rinsed once with TBS containing 0.5% Tween-20 (TBS-Tween) and blocked in TBS-Tween containing 5% non-fat milk for 1 h. After washing with PBS-Tween, the membrane was incubated with the primary WNV antibody (15) at 1:3000 dilutions for 1 h at 25° C. Prior to incubation with HRP conjugated-mouset IgG secondary antibody (Amersham, Life Science, Piscataway, N.J.) diluted 1:5000, the blot was washed in PBS-Tween. Following the secondary antibody incubation, the blot was washed again and treated with Super Signal Chemiluminescent Reagent (Pierce) according to the manufacturer's protocol and exposed to X-ray film. For controls, the blots were stripped and re-probed with an antibody to beta-actin (Chemicon), which was detected with a goat anti-mouse horseradish peroxidase conjugate.

WNV replicon = WNV replicon luciferase assay in BHK 26.5 cells (HTS, re-test, IC50); format: cell-based, West Nile virus; conditions: for IC50: West Nile virus, 24 h; for Fold decrease (HTS) / Fold decrease (Re-test): luciferase activity; for Fold decrease (HTS): 10 μM compound, 24 hours, BHK 26.5 cells; for Fold decrease (Re-test): re-checked at a single 10 μM concentration
Procedure: Ten micromolar concentrations of a selected compound were incubated with BHK 26.5 cells expressing luciferase whose activity is dependent upon WNV replicon replication (FIG. 1A). Primary “hits” were defined by the ability to reduce the amount of luciferase enzyme activity by more than 50%, compared to controls.
To quantify and rank the activity of the 23 remaining compound “hits”, a serial dilution of each compound was incubated with WNV replicon cells to determine the concentration that inhibits 50% of the luciferase readout (IC50s). […] A number of compounds had significant effect only at the highest, 10 μM concentration. However, several compounds had IC50s between 2 and 5 (Table 3), which is very reasonable for primary HTS hits from a compound library. Only a few compounds could cause 90% inhibition in the replicon cells at the concentrations tested.
as §1
Luciferase assay was performed by using the STEADY GLO reagent (Promega Corp. Madison, Wis.) according to the manufacturer's recommendation with slight modifications. Briefly, the culture media from the 96 wells were removed by dumping on paper towels.
100 μl of a 1:1 mixture of luciferase regent and culture media were added to the plate. After 5-minute incubation, the luminescence was read on a TOPCOUNT (PerkinElmer, Wellesley, Mass.).

BHK cells = test: toxicity (MTT, CC50) in BHK cells parallel to WNV infection assay; format: cell-based; conditions: 20 μM, parallel toxicity assessment
Procedure: Several of these original compounds selected from the WNV replicon based screen were evaluated in an antiviral assay against WNV live virus. […] Modifications of this compound would be further investigated
The toxicity of 101-G7 was also measured by MTT assay and CC50 was calculated. 40 μM is highest concentration used.
as §2

WNV = WNV yield reduction assay (live virus) on BHK cells; format: cell-based, West Nile virus
Procedure: The antiviral assay for the 309-F6 compounds was conducted on BHK cells. The virus produced in the presence of 1% DMSO or various concentrations of compounds was tittered on Vero cells. The amount of virus relative to the 1% DMSO control was plotted on the y-axis; the concentration of the compound 309F6 is shown in μM on the x-axis. Data from two independently treated wells (Test 1 and Test 2) are shown.
To measure activity against live WNV, BHK cells were plated in 96-well plates at a concentration of 12,000 cells/well. One day later the cells were infected with WNV for 1 h at an MOI of 0.05. The cells were then washed once and re-fed with fresh DMEM containing dilutions of the test compound. Plates were then incubated at 37° C. for 48 h, the supernatant collected and the WNV produced titered. For virus titration, Vero cells were plated in 96-well plates at 8000 cells/well and incubated overnight. The Vero cell monolayer were then infected for 1 h with various dilutions of the WNV supernatant, overlaid with media containing 0.6% tragacanth (ICN, CA) and incubated at 37° C. for 48 h. The culture media was then aspirated; the plate was rinsed, air-dried, and fixed with 50 μl/well acetone/methanol (50:50). Viral foci were detected for enumeration by immunostaining as described previously (15).

WNV RNA = test: Northern blot of WNV RNA in compound treated replicon cells; format: cell-based, West Nile virus; conditions: for WNV RNA replication / RNA level (northern blot): 10 μM, 48 hours; for WNV RNA reduction: 48-hour treatment, compounds 10 μM
Procedure: FIG. 6 is a picture of a Northern blot gel of compound treated WNV replicon cells. 4×10^4 cells were seeded in 24 well plates. After 24 hours, the cells were treated with DMSO (lanes 2, 3) or the non-specific inhibitors, MPA (lane 1) or the compounds […] (lane 4), 18-B3 (lane 5) or 52-F2 (lane 6). After 48 hours, total RNA were isolated, separated on denaturing agrose gels and transferred to nylon membrane. Total RNA from a non-replicon cell (Huh-7 cell) was loaded in lane 7 as negative control. The membrane was probed with [^32P]-dCTP-labeled WNV NS5 and human beta-actin. The signal was quantified using a BioRad phosphoimager and WNV RNA level was calculated using beta-actin as a reference.
To confirm that the compounds can indeed inhibit WNV RNA replication, the WNV RNA level in the replicon cells treated with compounds by Northern blot analysis. Several hit compounds, 18-B3, 275-F9, 275-D9, 52-F2 and MPA were selected to treat the BHK 26.5 cells at 10 μM. […] The “hit” compounds 18-B3 and 275-F9 reduced WNV RNA by 1.5 and 2 fold, respectively (FIG. 6, lanes 4, 5). 18-B3 is one of the nine compounds that have similar structures while 275-F9 is one from another class of four compounds (Table 3).
Total cellular RNA was extracted by using the RNEASY kit (Qiagen NV, Netherlands). Northern blot analysis was done according to the protocol of Gu et al. 2002 (8). Briefly, 5 μg total RNA was electrophoresed through a 1.0% agarose gel containing 2.2M formaldehyde, transferred to a nylon membrane and immobilized by UV cross-linking (Stratagene, La Jolla, Calif.). After pre-hybridization in 5 ml of QuickHyb (Amersham, Piscataway, N.J. GE Healthcare, Giles, UK), [2P] dCTP-labeled probe made by random primer labeling of a 2.7 kb NS5 DNA fragment and a human beta-actin DNA at 65° C. The membrane was washed twice in 2×SSC/0.1% SDS for 10 min at room temperature and twice in 0.1×SSC/0.1% SDS for 15 min at 68° C. Membranes were exposed to Molecular Imager FX phosphoimager (BioRad, Hercules, Calif.) and the radiographic signals were collected and quantitated.

SMILES	Toxicity (uM)* (BHK 26.5 replicon cells)	WNV NS3 protein level (western blot) (WNV NS3 protein)	IC50 (WNV replicon)	Fold decrease (HTS) (WNV replicon)	Fold decrease (Re-test) (WNV replicon)	cell toxicity (BHK cells)	WNV titer reduced (WNV; 20 μM, BHK cells, titered on Vero cells)	selective index (WNV; estimated)	activity in the WNV infection assay (WNV; live WNV)	WNV RNA replication / RNA level (northern blot) (WNV RNA)	WNV RNA reduction (WNV RNA)
CCN(CCNC(=O)c1cnn2c(O)c(Cc3ccccc3F)c(C)nc12)c1ccccc1 [Compound 309-F6, 6-(2-Fluoro-benzyl)-7-hydroxy-5-methyl-pyrazolo[1,5-a]pyrimidine-3-carboxylic acid [2-(ethyl-phenyl-amino)-ethyl]-amide]	>10 µM	reduced viral protein only at the 10 uM	10 µM	7 Fold	6 Fold	only slight cell toxicity	approximately 90%	more than 8	inhibited WNV production		
COc1ccc(CC(=O)Nc2ccc(C(=N)NO)cc2)cc1 [Compound 331-D11, N-[4-(N-Hydroxycarbamimidoyl)-phenyl]-2-(4-methoxy-phenyl)-acetamide]	>30 µM	dose dependency is also clearly seen	5 µM	4 Fold	2 Fold						
Cc1nc2c(C(=O)NCCC3=CCCCC3)cnn2c(O)c1Cc1ccccc1Cl [Compound 275-F9, 6-(2-Chloro-benzyl)-7-hydroxy-5-methyl-pyrazolo[1,5-a]pyrimidine-3-carboxylic acid (2-cyclohex-1-enyl-ethyl)-amide]	>10 µM		7.5 µM	27 Fold	4.5 Fold					clearly capable of reducing the WNV RNA level	2 fold
COc1ccc(-n2nc3c(c2NC(=O)c2ccc(S(=O)(=O)N4CCCCC4)cc2)CSC3)cc1 [Compound 18-D2, N-[2-(4-Methoxy-phenyl)-2,6-dihydro-4H-thieno[3,4-c]pyrazol-3-yl]-4-(piperidine-1-sulfonyl)-benzamide]	>30 µM	dose dependency is also clearly seen	7.5 µM	3 Fold	2.8 Fold						
COc1ccc(-n2nc3c(c2NC(=O)c2cccs2)CSC3)cc1 [Compound 18-B3, Thiophene-2-carboxylic acid [2-(4-methoxy-phenyl)-2,6-dihydro-4H-thieno[3,4-c]pyrazol-3-yl]-amide]	>30 µM		5 µM	3 Fold	2 Fold					clearly inhibited the WNV RNA replication	1.5 fold
Cc1ccc(CCNC(=O)c2cnn3c(O)c(Cc4ccccc4F)c(C)nc23)cc1 [Compound 310-B3, 6-(2-Fluoro-benzyl)-7-hydroxy-5-methyl-pyrazolo[1,5-a]pyrimidine-3-carboxylic acid (2-p-tolyl-ethyl)-amide]	>10 µM	reduced viral protein only at the 10 uM	10 µM	17 Fold	4 Fold						
